One assay has as its system HYB 100-01-POD. As to the kind of experiment: ELISA: effect of peptide length and N-terminus on the signal with TAL reagent and HYB 100-01-POD. The assay is classed as binding. Particulars: Example 6, FIG. 6, activated TAL, HYB 100-01-POD 0.5 μg/ml; for signal: peptide coupled to Immobilizer plate. How it is done: PBS (100 μl) was added to all wells of an Immobilizer 96-well microtiter plate (Nunc). The relevant peptides (SEQ ID NO:11, 13, 14, 15 and 16) were all diluted to 50 μg/ml in PBS and 100 μl of individual solutions added to the first well of the respective row. […] The peptides were allowed to couple to the plate for two hours at 20-25° C. Residual coupling activity was reduced by the addition of 50 μl of 50 mM Tris Buffer, pH 8.0, for 30 minutes. Each well was then washed with 100 μl of PBS. To 0.5 ml of TAL reagent (Zhanjiang A&C Biologicals Ltd) was added 15 EU of Control Standard Endotoxin (CSE) followed by 12 ml of endotoxin-free PBS, and 100 μl of this solution was then added to each well. The plate was then incubated at 37° C. for 45 minutes.

In another assay the test system is TAL reagent. Particulars: Example 4, FIG. 4; peptide at 40 ng/ml, detection with HYB 100-01-POD.
A further assay has as its system antisera. As to the kind of experiment: Inhibition ELISA: cross-reactivity of antisera with peptides of different length. The assay is classed as binding, mice. The following applies: antisera against octapeptide QESGVSGR
How it is done:
Immunization of mice: Separate groups of BCG-vaccinated mice were immunized with six doses (10 μg carrier) of each of these conjugates at 14-day intervals and their sera tested by ELISA in wells coated with the corresponding peptide coupled at molar ratios of 5:1 or 2.5:1 to the opposite carrier at a coating concentration of 10 μg/ml (with respect to carrier) in 0.05 M sodium carbonate buffer, pH 9.6.

No end group written: not given here. *: point of attachment. Biotin = O=C1N[C@H]2[C@H](CS[C@H]2CCCCC(=O)*)N1

As for “Biocytin-VQAITDKDEISGR [Peptide SEQ ID NO:11]”, in the assay on HYB 100-01-POD, the “coating concentration at which the maximal (or similar) signal is reached” value is “about 0.05 μg/ml” and the signal entry is on record as “much stronger signal”.
As to “Biotin-VQAITDKDEISGRGF [Peptide SEQ ID NO:12]”, in the assay with TAL reagent, the “cleavage by endotoxin-activated TAL” value was “site-specific cleavage”.
With DKDEISGR [Peptide SEQ ID NO:14], the signal result with HYB 100-01-POD is on record as “almost totally lost”.
The same measure, in the same setting: to “Biocytin-VQAITDKDEISGRGF [Peptide SEQ ID NO:16]” belongs “slightly lower signal”.
For the substance ITDKDEISGR [Peptide SEQ ID NO:15], the “coating concentration at which the maximal (or similar) signal is reached” value in the assay with HYB 100-01-POD lay in the range of 12.5 to 25 µg/mL.
For GVSGR [pentapeptide], the cross-reactivity entry in the assay with antisera (result in words) is on record as “little or no cross-reactivity”.
In turn, AQESGVSGR [nonapeptide] yielded a cross-reactivity in the assay with antisera of over 100%.

Values taken from patent US20050079566A1, “Analytical methods for determination of proteolytic cleavage at specific sites” (priority 2003, published 2005).
